MIC data for seven compounds are collected here from ChEMBL document CHEMBL5584255, “Synthesis and antibacterial medicinal evaluation of carbothioamido hydrazonyl thiazolylquinolone with multitargeting antimicrobial potential to combat increasingly global resistance” (Eur J Med Chem, 2024).

By MIC is commonly meant the lowest concentration found to suppress growth.

In brackets after ≈: the same amount, converted by molar mass.

Common to all, as to type: functional
Experiment [1] has as its system Staphylococcus aureus. The experiment can be described thus: Antibacterial activity against Staphylococcus aureus ATCC 25923 by microbroth dilution method.
Experiment [2] concerns Staphylococcus aureus. Description: Antibacterial activity against Staphylococcus aureus ATCC 29213 by microbroth dilution method. (In broth dilution the organism is exposed to a series of concentrations in liquid medium.)
For experiment [3], the system named is Staphylococcus aureus. Description: Antibacterial activity against drug-resistant Staphylococcus aureus by microbroth dilution method.
For experiment [4], the system named is Staphylococcus aureus. Description: Antibacterial activity against methicillin-resistant Staphylococcus aureus N315 by microbroth dilution method.
For another experiment, the system named is Enterococcus faecalis. The experiment can be described thus: Antibacterial activity against drug-resistant Enterococcus faecalis by microbroth dilution method.
Experiment [5] concerns Candida albicans. Description: Antifungal activity against Candida albicans ATCC 90023.
Experiment [6] relates to Candida albicans. Description: Antifungal activity against drug-resistant Candida albicans.
For another experiment, the system named is Candida parapsilosis. The experiment can be described thus: Antifungal activity against Candida parapsilosis ATCC 22019. To be noted: Lodderomyces parapsilosis.
Another experiment relates to Candida tropicalis. The experiment can be described thus: Antifungal activity against drug-resistant Candida tropicalis.
Another experiment deals with Aspergillus fumigatus. Description: Antifungal activity against Aspergillus fumigatus.
The test system of experiment [7] is Escherichia coli. Description: Antibacterial activity against Escherichia coli ATCC 25922 by microbroth dilution method.
The test system of experiment [8] is Pseudomonas aeruginosa. Description: Antibacterial activity against Pseudomonas aeruginosa ATCC 27853 by microbroth dilution method.
Experiment [9] concerns Escherichia coli. Description: Antibacterial activity against drug-resistant Escherichia coli by microbroth dilution method.
Experiment [10] relates to Pseudomonas aeruginosa. The experiment can be described thus: Antibacterial activity against Pseudomonas aeruginosa by microbroth dilution method.
The test system of a further experiment is Klebsiella pneumoniae. The experiment can be described thus: Antibacterial activity against Klebsiella pneumoniae by microbroth dilution method.
Another experiment relates to Acinetobacter baumannii. The experiment can be described thus: Antibacterial activity against Acinetobacter baumannii by microbroth dilution method.

As to `CCOC(=O)c1cn(C/C(C)=N/NC(N)=S)c2cc(Cl)c(F)cc2c1=O`, the MIC in the experiment with Staphylococcus aureus [1], in the experiment on Staphylococcus aureus [2], with Staphylococcus aureus [3], in the experiment with Staphylococcus aureus [4], in the experiment with Enterococcus faecalis and against Candida albicans [5] was 643 µM (≈ 256 µg/mL) in each case. Besides, the MIC was 1290 µM (≈ 513 µg/mL) in the experiment on Candida albicans [6]; 161 µM (≈ 64.2 µg/mL) in the experiment on Candida parapsilosis; 643 µM (≈ 256 µg/mL) in the experiment with Candida tropicalis; 322 µM (≈ 128 µg/mL) in the experiment on Aspergillus fumigatus; 1290 µM (≈ 513 µg/mL) against Escherichia coli [7]; 322 µM (≈ 128 µg/mL) against Pseudomonas aeruginosa [8]. Also, the MIC came to 1290 µM (≈ 513 µg/mL) in the experiment on Escherichia coli [9], 322 µM (≈ 128 µg/mL) in the experiment on Pseudomonas aeruginosa [10], 643 µM (≈ 256 µg/mL) in the experiment with Klebsiella pneumoniae and 643 µM (≈ 256 µg/mL) in the experiment with Acinetobacter baumannii.
Consider `C/C(Cn1cc(-c2csc(N)n2)c(=O)c2cc(F)ccc21)=N\NC(N)=S`, for which the MIC with Staphylococcus aureus [1] turned out to be 82 µM (≈ 32 µg/mL); with Staphylococcus aureus [2], 82 µM (≈ 32 µg/mL); in the experiment with Staphylococcus aureus [3], 82 µM (≈ 32 µg/mL); against Staphylococcus aureus [4], 164 µM (≈ 64 µg/mL); against Enterococcus faecalis, 328 µM (≈ 128 µg/mL); against Candida albicans [5] it was 328 µM (≈ 128 µg/mL). Besides, the MIC against Candida albicans [6] came out at 328 µM (≈ 128 µg/mL); against Candida parapsilosis, 656 µM (≈ 256 µg/mL); against Candida tropicalis, 328 µM (≈ 128 µg/mL); in the experiment with Aspergillus fumigatus, 656 µM (≈ 256 µg/mL); against Escherichia coli [7], 164 µM (≈ 64 µg/mL); in the experiment with Pseudomonas aeruginosa [8], 656 µM (≈ 256 µg/mL). In addition, the MIC is 328 µM (≈ 128 µg/mL) against Escherichia coli [9], 656 µM (≈ 256 µg/mL) in the experiment with Pseudomonas aeruginosa [10], 656 µM (≈ 256 µg/mL) with Klebsiella pneumoniae and 328 µM (≈ 128 µg/mL) in the experiment on Acinetobacter baumannii.
In the case of `CCOC(=O)c1cn(C/C(C)=N/NC(N)=S)c2cc(F)c(F)cc2c1=O`, the MIC against Staphylococcus aureus [1] was 670 µM (≈ 256 µg/mL); against Staphylococcus aureus [2], 335 µM (≈ 128 µg/mL); against Staphylococcus aureus [3], 670 µM (≈ 256 µg/mL); in the experiment with Staphylococcus aureus [4], 1340 µM (≈ 512 µg/mL); in the experiment on Enterococcus faecalis, 335 µM (≈ 128 µg/mL); in the experiment with Candida albicans [5], 670 µM (≈ 256 µg/mL). Also, the MIC in the experiment with Candida albicans [6] was determined as 1340 µM (≈ 512 µg/mL); against Candida parapsilosis, 335 µM (≈ 128 µg/mL); against Candida tropicalis it was 670 µM (≈ 256 µg/mL); in the experiment on Aspergillus fumigatus, 670 µM (≈ 256 µg/mL); in the experiment with Escherichia coli [7] it was 670 µM (≈ 256 µg/mL); in the experiment on Pseudomonas aeruginosa [8] it was 335 µM (≈ 128 µg/mL). The MIC against Escherichia coli [9] is 670 µM (≈ 256 µg/mL); against Pseudomonas aeruginosa [10] it was 670 µM (≈ 256 µg/mL); with Klebsiella pneumoniae it was 670 µM (≈ 256 µg/mL); in the experiment on Acinetobacter baumannii, 335 µM (≈ 128 µg/mL).
Take `Cc1nc(-c2c[nH]c3c(F)cccc3c2=O)cs1`: the MIC with Staphylococcus aureus [1] was determined as 985 µM (≈ 256 µg/mL); against Staphylococcus aureus [2], 1970 µM (≈ 513 µg/mL); in the experiment with Staphylococcus aureus [3], 1970 µM (≈ 513 µg/mL); with Staphylococcus aureus [4], 1970 µM (≈ 513 µg/mL); with Enterococcus faecalis it was 985 µM (≈ 256 µg/mL); in the experiment on Candida albicans [5] it was 985 µM (≈ 256 µg/mL). In addition, the MIC with Candida albicans [6] is 985 µM (≈ 256 µg/mL); in the experiment on Candida parapsilosis, 492 µM (≈ 128 µg/mL); with Candida tropicalis it was 492 µM (≈ 128 µg/mL); with Aspergillus fumigatus, 492 µM (≈ 128 µg/mL); in the experiment with Escherichia coli [7], 985 µM (≈ 256 µg/mL); against Pseudomonas aeruginosa [8], 492 µM (≈ 128 µg/mL). For the same compound, the MIC in the experiment with Escherichia coli [9] stood at 1970 µM (≈ 513 µg/mL); in the experiment with Pseudomonas aeruginosa [10], 985 µM (≈ 256 µg/mL); in the experiment on Klebsiella pneumoniae, 985 µM (≈ 256 µg/mL); against Acinetobacter baumannii, 492 µM (≈ 128 µg/mL).
Consider `Nc1nc(Cn2cc(-c3csc(N)n3)c(=O)c3cc(F)c(Cl)cc32)cs1`, for which the MIC against Staphylococcus aureus [1] was 39 µM (≈ 15.9 µg/mL); in the experiment on Staphylococcus aureus [2], 20 µM (≈ 8.16 µg/mL); against Staphylococcus aureus [3] it was 39 µM (≈ 15.9 µg/mL); in the experiment with Staphylococcus aureus [4], 315 µM (≈ 128 µg/mL); in the experiment with Enterococcus faecalis, 315 µM (≈ 128 µg/mL); with Candida albicans [5], 39 µM (≈ 15.9 µg/mL). The MIC in the experiment on Candida albicans [6] amounted to 157 µM (≈ 64 µg/mL); with Candida parapsilosis, 79 µM (≈ 32.2 µg/mL); in the experiment with Candida tropicalis it was 315 µM (≈ 128 µg/mL); in the experiment with Aspergillus fumigatus, 315 µM (≈ 128 µg/mL); with Escherichia coli [7] it was 20 µM (≈ 8.16 µg/mL); in the experiment with Pseudomonas aeruginosa [8], 39 µM (≈ 15.9 µg/mL). Besides, the MIC in the experiment with Escherichia coli [9] was 157 µM (≈ 64 µg/mL); in the experiment on Pseudomonas aeruginosa [10] it was 157 µM (≈ 64 µg/mL); in the experiment on Klebsiella pneumoniae, 315 µM (≈ 128 µg/mL); with Acinetobacter baumannii, 157 µM (≈ 64 µg/mL).
Regarding `Cc1nc(-c2c[nH]c3c(F)cc(F)cc3c2=O)cs1`, the minimum inhibitory concentration (MIC) against Staphylococcus aureus [1] stood at 460 µM (≈ 128 µg/mL); against Staphylococcus aureus [2] it was 460 µM (≈ 128 µg/mL); with Staphylococcus aureus [3] it was 921 µM (≈ 256 µg/mL); against Staphylococcus aureus [4] it was 460 µM (≈ 128 µg/mL); with Enterococcus faecalis it was 460 µM (≈ 128 µg/mL); with Candida albicans [5], 460 µM (≈ 128 µg/mL). Besides, the MIC came to 1840 µM (≈ 513 µg/mL) against Candida albicans [6]; 921 µM (≈ 256 µg/mL) with Candida parapsilosis; 921 µM (≈ 256 µg/mL) in the experiment with Candida tropicalis; 921 µM (≈ 256 µg/mL) in the experiment on Aspergillus fumigatus; 921 µM (≈ 256 µg/mL) with Escherichia coli [7]; 1840 µM (≈ 513 µg/mL) against Pseudomonas aeruginosa [8]. Also, the MIC against Escherichia coli [9] was 1840 µM (≈ 513 µg/mL); with Pseudomonas aeruginosa [10], 1840 µM (≈ 513 µg/mL); against Klebsiella pneumoniae, 460 µM (≈ 128 µg/mL); in the experiment on Acinetobacter baumannii it was 921 µM (≈ 256 µg/mL).
As to `CC(=O)Cn1cc(-c2csc(N)n2)c(=O)c2cccc(F)c21`, the MIC with Staphylococcus aureus [1] amounted to 404 µM (≈ 128 µg/mL); against Staphylococcus aureus [2], 807 µM (≈ 256 µg/mL); in the experiment with Staphylococcus aureus [3] it was 807 µM (≈ 256 µg/mL); against Staphylococcus aureus [4], 404 µM (≈ 128 µg/mL); against Enterococcus faecalis, 404 µM (≈ 128 µg/mL); against Candida albicans [5] it was 404 µM (≈ 128 µg/mL). In addition, the MIC amounted to 404 µM (≈ 128 µg/mL) in the experiment with Candida albicans [6]; 404 µM (≈ 128 µg/mL) in the experiment with Candida parapsilosis; 202 µM (≈ 64.1 µg/mL) against Candida tropicalis; 404 µM (≈ 128 µg/mL) with Aspergillus fumigatus; 807 µM (≈ 256 µg/mL) against Escherichia coli [7]; 404 µM (≈ 128 µg/mL) against Pseudomonas aeruginosa [8]. Moreover, the MIC against Escherichia coli [9] came out at 807 µM (≈ 256 µg/mL); against Pseudomonas aeruginosa [10], 807 µM (≈ 256 µg/mL); in the experiment with Klebsiella pneumoniae, 404 µM (≈ 128 µg/mL); against Acinetobacter baumannii, 404 µM (≈ 128 µg/mL).
